Experimental data from patent US20110177964A1, “CHEMOSENSORY ARRAYS” (THE TRUSTEES OF PRINCETON UNIVERSITY, priority 2009, published 2011).
Changes are numbered by the printed parent chain.

Columns and labels:
2211 receptor = molecular target: T1, 2211 receptor (Homo sapiens, UniProt Q15391, A193V/A252V/A98G/F243I/K54E); assay: Yeast growth plate assay (FUS1-HIS3 reporter) on selective media containing ligand; type: cell-based; conditions: 2211 (parent) receptor, selective plates with ligand
T1 construct: expressed in transfected cells; host or cells: Saccharomyces yeast; strain CY10981 with FUS1-LacZ plasmid for β-galactosidase assays, strain CY10560 (FUS1-HIS3) for growth selection
T1 sequence (Q15391 with tags, fused parts or gaps K54E/A98G/A193V/F243I/A252V): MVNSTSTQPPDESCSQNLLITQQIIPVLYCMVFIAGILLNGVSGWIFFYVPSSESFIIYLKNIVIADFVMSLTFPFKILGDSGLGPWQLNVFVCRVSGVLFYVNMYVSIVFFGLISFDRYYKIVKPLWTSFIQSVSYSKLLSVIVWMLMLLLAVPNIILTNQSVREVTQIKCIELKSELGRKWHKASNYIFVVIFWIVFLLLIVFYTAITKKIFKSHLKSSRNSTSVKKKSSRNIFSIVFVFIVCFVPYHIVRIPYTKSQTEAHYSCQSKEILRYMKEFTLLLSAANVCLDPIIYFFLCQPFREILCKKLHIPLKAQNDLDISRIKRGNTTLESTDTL
Text: Mutagenesis and selection of sensitized receptor mutants: The entire UDPG receptor gene was mutagenized via errorprone mutagenesis to an estimated frequency of −2-5 mutations/kb following the Mutazyme protocol. […] A total of (1-2)×10^5 colonies were screened by replica plating to SC-His medium (Kaiser, C., Michaelis, S, and Mitchell, A. (1994) Methods in Yeast Genetics: A Cold Spring Harbor Laboratory Course Manual. Cold Spring Harbor Laboratory Press, Cold Spring Harbor, N.Y., which is incorporated herein by reference as if fully set forth) with or without ligand. Yeast growth media was supplemented by 1 mM 3AT, a competitive inhibitor of the HIS3 reporter gene product, which sets the threshold for reporter gene activation.
Cells were transformed with a plasmid library carrying the randomly mutated human UDPG receptor gene.
The 20 receptors isolated in this primary screen were subsequently retested for growth in the presence of lower concentrations of each ligand, to ascertain whether the receptor had significant changes in ligand preference. […] To determine whether the receptors that lacked appreciable changes in ligand specificity were indeed mutants and to verify the complexity of the mutant library, the DNA encoding each receptor was sequenced.

K-3 (R2) receptor = molecular target: T2, K-3 (R2) receptor (Homo sapiens, UniProt Q15391, A193V/A252V/A98G/E278G/F243I/K54E); assay: Yeast FUS1-lacZ β-galactosidase reporter assay, single receptor-single ligand calibration curves fitted by Bayesian nested sampling; type: cell-based; conditions: for ΔG (receptor-ligand binding free energy): K-3 (R2) expressed in yeast, average ± s.d. from posterior; for A (receptor efficacy): K-3 (R2), 1 = full agonist, 0 = full antagonist
T2 construct: expressed in transfected cells; host or cells: Saccharomyces yeast; strain CY10981 with FUS1-LacZ plasmid for β-galactosidase assays, strain CY10560 (FUS1-HIS3) for growth selection
T2 sequence (Q15391 with tags, fused parts or gaps K54E/A98G/A193V/F243I/A252V/E278G): T1 sequence (Q15391 with tags, fused parts or gaps K54E/A98G/A193V/F243I/A252V) with E278G
Text: (§1) To assess receptor ligand interactions quantitatively in the chemosensor array, the receptors were functionally expressed in yeast. To do so, the yeast pheromone receptor was replaced with one of the sensor GPCRs in strains in which the pheromone response pathway was modified to respond to the heterologous receptor by inducing transcription of the E. coli lacZ gene. See the example section below. In this fashion, the extent of GPCR activation following ligand addition could be monitored as the level of β-galactosidase produced in the cell, which was measured using a fluorescence-based assay. See the example section below.
(§2) Receptor responses to binding of a single ligand. It was assumed that the observed signal in the receptor-bearing reporter strain is proportional to the probability that the receptor is bound by the ligand. This proportionality value, A, which is referred to as the receptor efficacy, can range from 1, for a full agonist, to 0, for a full antagonist, with intermediate values indicating partial agonist activity. In the simplest case of a single receptor interacting with a single ligand, the amount of activation of the reporter in the receptor bearing strain is given by:
(§3) where A is the receptor efficacy, ΔG is the receptor-ligand binding free energy, b is the background intensity, β=1/kBT (kB is the Boltzmann constant, and T is the temperature), and μ^l=kBT log n^l, which is the chemical potential, where n^l is the ligand concentration. In the example of fluorescing products, I can be measured by a fluorescent assay, but the intensity of any report may be utilized. […] In this example, the four receptors are R1: H-20, R2: K-3, and R3: L-3, R4: 2211. See the example section below for details regarding these receptors. […] For each curve, intensity normalized by the maximum intensity on the plate is plotted against log10 n (n is the ligand concentration in M). The error bars on each curve are from four biological replicates. The single receptor-single ligand binding curves can be used to calibrate the biophysical model (Eq. (1)) by inferring ΔG, A and b for each receptor-ligand combination and knowledge of μ^l. Specifically, Bayesian inference is applied. Referring to FIG. 4, the posterior probability P(ΔG, A, b, σ|{Ĩ}) is found by nested sampling (see below), where Ĩ=(l=1 . . . N) is the lth fluorescent and a is the noise parameter. […] This step provides calibration by returning the most likely value of ΔG, A and b for each receptor-ligand pair, as well as a value σ, which represents the noise in the response. The average value of each parameter obtained by marginalization of the posterior probability can be subsequently used for analysis of a mixture of compounds.
(§4) In this example, yeast cultures expressing each of the four mutant receptors (2211, H-20, K-3 and L-3) were grown overnight and diluted to OD600 of […] in flasks. Cultures were then grown to an OD600 of 0.1-0.2 and 80 μl of culture was aliquotted into deep-well 384 well plates along with 20 μL of ligand. Cultures in the 384 well plates were incubated with vigorous mixing for 4 hours (H-20, K-3, L-3) or overnight (2211). 50 μL of each sample was transferred to a black 384 well plate containing 25 μL fluorescein/lysis solution (as described in Chambers J, et al.). Fluorescence was read on a PerkinElmer fluorescent plate reader.

L-3 (R3) receptor = molecular target: T3, L-3 (R3) receptor (Homo sapiens, UniProt Q15391, A193V/A252V/A285S/A98G/F243I/K54E/L281V/L282F); assay: as above; type: cell-based; conditions: for ΔG (receptor-ligand binding free energy): L-3 (R3) expressed in yeast, average ± s.d. from posterior; for A (receptor efficacy): L-3 (R3), 1 = full agonist, 0 = full antagonist
T3 construct: expressed in transfected cells; host or cells: Saccharomyces yeast; strain CY10981 with FUS1-LacZ plasmid for β-galactosidase assays
T3 sequence (Q15391 with tags, fused parts or gaps K54E/A98G/A193V/F243I/A252V/L281V/L282F/A285S): T1 sequence (Q15391 with tags, fused parts or gaps K54E/A98G/A193V/F243I/A252V) with L281V, L282F, A285S
Text: as §1, §2, §3, §4

H-20 (R1) receptor = molecular target: T4, H-20 (R1) receptor (Homo sapiens, UniProt Q15391, A193V/A252V/A98G/F243I/I251T/K54E/R253K); assay: as above; type: cell-based; conditions: for ΔG (receptor-ligand binding free energy): H-20 (R1) expressed in yeast, average ± s.d. from posterior; for A (receptor efficacy): H-20 (R1), 1 = full agonist, 0 = full antagonist
T4 construct: expressed in transfected cells; host or cells: Saccharomyces yeast; strain CY10981 with FUS1-LacZ plasmid for β-galactosidase assays, strain CY10560 (FUS1-HIS3) for growth selection
T4 sequence (Q15391 with tags, fused parts or gaps K54E/A98G/A193V/F243I/I251T/A252V/R253K): T1 sequence (Q15391 with tags, fused parts or gaps K54E/A98G/A193V/F243I/A252V) with I251T, R253K
Text: as §1, §2, §3, §4

K-3 mutant receptor = molecular target: T5, K-3 mutant receptor (Homo sapiens, UniProt Q15391, A193V/A252V/A98G/E278G/F243I/K54E); assay: Yeast growth plate assay (FUS1-HIS3 reporter) on selective media containing ligand; type: cell-based; conditions: K-3 mutant relative to its parent H-20
T5 construct: expressed in transfected cells; host or cells: Saccharomyces yeast; strain CY10981 with FUS1-LacZ plasmid for β-galactosidase assays, strain CY10560 (FUS1-HIS3) for growth selection
T5 sequence (Q15391 with tags, fused parts or gaps K54E/A98G/A193V/F243I/A252V/E278G): T1 sequence (Q15391 with tags, fused parts or gaps K54E/A98G/A193V/F243I/A252V) with E278G
Text: The ‘HIAR’ motif in transmembrane domain 6 was targeted. […] Libraries containing the randomized HIAR motif were constructed in vivo by cotransforming strain CY10560 cells with three DNA fragments: a 2211 receptor plasmid cut to remove the HIAR domain and a pair of PCR products synthesized with oligonucleotides randomized over the HIAR region and 50 and 30 extensions overlapping both sides of the gap in the plasmid. […] The 20 receptors isolated in this primary screen were subsequently retested for growth in the presence of lower concentrations of each ligand, to ascertain whether the receptor had significant changes in ligand preference. […] To determine whether the receptors that lacked appreciable changes in ligand specificity were indeed mutants and to verify the complexity of the mutant library, the DNA encoding each receptor was sequenced.
H-20 was selected as the template for mutagenesis of three additional motifs, ‘AxxFY’ and ‘NMY’ in TM3 and ‘KExT’ in TM7. These mutants were tested in the same manner as the HIAR mutants, focusing only on mutants with clear changes in relative growth on one or more ligands.

2211 (R4) receptor = molecular target: T6, 2211 (R4) receptor (Homo sapiens, UniProt Q15391, A193V/A252V/A98G/F243I/K54E); assay: Yeast FUS1-lacZ β-galactosidase reporter assay, single receptor-single ligand calibration curves fitted by Bayesian nested sampling; type: cell-based, yeast expressing yeast expressing yeast expressing yeast expressing human receptor receptor receptor receptor; conditions: for ΔG (receptor-ligand binding free energy): 2211 (R4) expressed in yeast, average ± s.d. from posterior; for A (receptor efficacy): 2211 (R4), 1 = full agonist, 0 = full antagonist
T6 construct: expressed in transfected cells; host or cells: Saccharomyces yeast; strain CY10981 with FUS1-LacZ plasmid for β-galactosidase assays, strain CY10560 (FUS1-HIS3) for growth selection
T6 sequence (Q15391 with tags, fused parts or gaps K54E/A98G/A193V/F243I/A252V): T1 sequence (Q15391 with tags, fused parts or gaps K54E/A98G/A193V/F243I/A252V)
Text: as §1, §2, §3, §4

SMILES	receptor response to ligand (yeast growth) (2211 receptor)	ΔG (receptor-ligand binding free energy) (K-3 (R2) receptor)	A (receptor efficacy) (K-3 (R2) receptor)	agonist/antagonist character (K-3 (R2) receptor; K-3, small A, large negative ΔG)	ΔG (receptor-ligand binding free energy) (L-3 (R3) receptor)	A (receptor efficacy) (L-3 (R3) receptor)	agonist/antagonist character (L-3 (R3) receptor; L-3, small A, large negative ΔG)	ΔG (receptor-ligand binding free energy) (H-20 (R1) receptor)	A (receptor efficacy) (H-20 (R1) receptor)	agonist/antagonist character (H-20 (R1) receptor; H-20, small A, large negative ΔG)	yeast growth in response to ligand (K-3 mutant receptor)	ΔG (receptor-ligand binding free energy) (2211 (R4) receptor)	A (receptor efficacy) (2211 (R4) receptor)	agonist/antagonist character (2211 (R4) receptor; 2211, small A, large negative ΔG)
O=c1ccn([C@@H]2O[C@H](COP(=O)(O)OP(=O)(O)O)[C@@H](O)[C@H]2O)c(=O)[nH]1 [UDP, uridine diphosphate]	do not activate	-8.2 ± .2 kcal/mol	.18 ± .01	antagonist	-7.4 ± .1 kcal/mol	.02 ± .02	antagonist	-7.42 ± .05 kcal/mol	.008 ± .009	antagonist	grew	-10.3 ± .3 kcal/mol	.010 ± .009	antagonist
Cc1cn([C@H]2C[C@H](O)[C@@H](COP(=O)(O)OP(=O)(O)O[C@H]3O[C@H](CO)[C@@H](O)[C@H](O)[C@H]3O)O2)c(=O)[nH]c1=O [dTDP-glucose]	do not activate	–	–	–	–	–	–	–	–	–	–	–	–	–
CC(=O)N[C@H]1[C@@H](OP(=O)(O)OP(=O)(O)OC[C@H]2O[C@@H](n3ccc(=O)[nH]c3=O)[C@H](O)[C@@H]2O)O[C@H](CO)[C@H](O)[C@@H]1O [UDP-GalNAc, UDP-N-acetylgaltactosamine]	responds	–	–	–	–	–	–	–	–	–	–	–	–	–
CC(=O)N[C@H]1[C@@H](OP(=O)(O)OP(=O)(O)OC[C@H]2O[C@@H](n3ccc(=O)[nH]c3=O)[C@H](O)[C@@H]2O)O[C@H](CO)[C@@H](O)[C@@H]1O [UDP-GlcNAc, UDP-N-acetylglucosamine]	responds	-5.36 ± .06 kcal/mol	.55 ± .01	–	-5.60 ± .06 kcal/mol	.43 ± .01	–	-6.16 ± .06 kcal/mol	.51 ± .01	–	–	-8.00 ± .09 kcal/mol	.89 ± .04	–
